From patent US20100056458A1, “Peptides Inhibiting Angiotensin-Converting Enzyme” (CAMPINA NEDERLAND HOLDING B.V., priority 2005, published 2010)

Test system: angiotensin-converting enzyme (ACE)
Assay: HPLC with mass spectrometry and on-line bioassay unit for assessing ACE-inhibiting activity
Format: biochemical
Source text: The identity and the activity of the peptides and their mixtures can be determined by known methods, e.g. as described by Van Elswijk et al. J Chromatography A, 1020 (2003) 45-58, involving liquid chromatography coupled to mass spectroscopy, and on-line bioassay. […] The IC50 can be determined in vitro as described by V. Vermeirsen, J. van Camp & J. Verstraete, “Optimisation and validation of an angiotensin-converting enzyme inhibition assay for the screening of bioactive peptides”. J. Biochem. Biophys. Methods 51, 75-87 (2002).
The peptides obtained according to example I, were analysed using HPLC as described by Van Elswijk et al. J Chromatography A 1020 (2003) 45-58. The HPLC eluate was divided over a mass spectrometry for determining the peptide structure and a bioassay unit for assessing the ACE-inhibiting activity. The following peptides were identified: AVP (SEQ ID No. 25), LV (SEQ ID No. 5) and IV (SEQ ID No. 1). Another batch of the same caseinate contained the peptides KIHP (SEQ ID No. 28), KK (SEQ ID No. 73), VPYPQR (SEQ ID No. 20), and KYKVPQ (SEQ ID No. 91). Starting with other casein sources the peptides VLGPV (SEQ ID No. 10), VLPVPQK (SEQ ID No. 75), VPYPQ (SEQ ID No. 21), KK (SEQ ID No. 73), VNELSK (SEQ ID No. 76), and […] (SEQ ID No. 33) were found.
Similarly the product from example II was analysed and contained IAEKT (SEQ ID No. 57), LDIQK (SEQ ID No. 74) and LKALP (SEQ ID No. 64). Starting from other whey protein sources WPC 60 or whey protein isolate, VLGPV (SEQ ID No. 10), VLPVPQ (SEQ ID No. 18), MKGLDI (SEQ ID No. 41), LR (SEQ ID No. 44), MHIRLS (SEQ ID No. 48), IIA (SEQ ID No. 56) were identified.

[1] = product from example II (WPC 80 hydrolysate)
[2] = other whey protein sources WPC 60 or whey protein isolate
[3] = another batch of the same caseinate

identified as ACE-inhibiting peptide (other casein sources)	identified as ACE-inhibiting peptide [2]	Substance	further results
		AVP	identified as ACE-inhibiting peptide (hydrolysate of example I (calcium caseinate)): identified
found		FFVAPFPEVFG (listed as Bos taurus)	
		IAEKT (listed as Bos taurus) [β-lactoglobulin-derived peptide]	identified as ACE-inhibiting peptide [1]: contained
	identified	IIA (listed as Bos taurus)	
		KIHP (listed as Bos taurus) [β-casein-derived peptide]	identified as ACE-inhibiting peptide [3]: contained
		KYKVPQ (listed as Bos taurus)	identified as ACE-inhibiting peptide [3]: contained
		LDIQK (listed as Bos taurus) [β-lactoglobulin-derived peptide]	identified as ACE-inhibiting peptide [1]: contained
		LKALP (listed as Bos taurus) [β-lactoglobulin-derived peptide]	identified as ACE-inhibiting peptide [1]: contained
	identified	MHIRLS (listed as Bos taurus)	
	identified	MKGLDI (listed as Bos taurus) [β-lactoglobulin-derived peptide]	
found	identified	VLGPV (listed as Bos taurus) [β-casein peptide]	
found		VNELSK (listed as Bos taurus)	
found		VPYPQ (listed as Bos taurus) [β-casein-derived peptide]	
		VPYPQR (listed as Bos taurus) [β-casein-derived peptide]	identified as ACE-inhibiting peptide [3]: contained

Substance	identified as ACE-inhibiting peptide (other casein sources)	identified as ACE-inhibiting peptide [2]	further results
VLPVPQ (listed as Bos taurus)		identified	
VLPVPQK (listed as Bos taurus)	found		
